This assay deals with S. pyogenes SKKanGAS, kanamycin survival, BacTiterGlo, 6 h. In words: SKKanGAS survival reduction under kanamycin, dose response, streptokinase promoter inhibitor project, SKKanGAS strain, luminescence, dose confirmation (AID 1902).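 Also: lower survival reflects blocked streptokinase promoter driving kanamycin resistance gene.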

Activity calls are given as the source filed them.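 The calls were made as follows: active = EC50 no more than a set limit of log units above the highest dose; inactive = the rest.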

As a reminder, the EC50 is the concentration at which the effect is half-maximal. With `CCC(=C/c1sc2ccc3ccccc3c2[n+]1C)/C=C1\Sc2ccc3ccccc3c2N1C`, the EC50 is 2.67 µM. In the case of `Cc1ccc(NC(=O)c2cccc(OCc3c(C)noc3C)c2)cc1S(=O)(=O)Nc1ccccc1Cl` it was 7.39 µM; in that of `COc1cccc(/C=N/Nc2nc(Nc3ccccc3)nc(-n3nc(C)cc3C)n2)c1O`, 1.97 µM. As to `C/C(=C\C(=O)OCCCCCCCCC(=O)O)C[C@@H]1OC[C@H](C[C@@H]2O[C@H]2[C@@H](C)[C@H](C)O)[C@@H](O)[C@H]1O`, the EC50 is below 0.06 µM. For `CSCc1nnc(NC(=O)c2ccc(S(=O)(=O)N(CC(C)C)CC(C)C)cc2)o1`, the EC50 was 0.724 µM.

For `CCc1sc(N(C(=O)Cc2ccccc2)c2cccc(F)c2)nc1-c1ccc(C)cc1`, the EC50 is 1.77 µM. As to `CCc1ccc(S(=O)(=O)/N=C2\C=C(Nc3cccc(C(=O)O)c3)C(=O)c3ccccc32)cc1`, the EC50 was 1.71 µM. For the compound `COc1cccc(/C=C/c2ccc3cccc(O)c3n2)c1OC`, the EC50 is 0.887 µM. In the case of `CC(=O)O[C@H]1C[C@@]2(C)[C@@H](C[C@@H](O)[C@H]3[C@@]4(C)CC[C@@H](O)[C@@H](C)C4CC[C@@]32C)/C1=C(\CCC=C(C)C)C(=O)O` (stereo partly specified) it was 1.58 µM; in that of `CCn1cc(C(=O)OCC(=O)c2cc(C)n(-c3cccc(C(F)(F)F)c3)c2C)c(=O)c2ccc(C)nc21`, 9.92 µM. Regarding `CC(C)C[C@H](NC(=O)c1[nH]cnc1C(=O)Nc1ccccc1)C(=O)OC(C)(C)C`, the concentration for a half-maximal effect (EC50) is 3.8 µM. In the case of `Cn1c2ccccc2c(=O)c2c(=O)n(-c3ccc(F)cc3)c(-c3cccs3)nc21` it was 4.76 µM; in that of `COc1ccccc1-n1cnc2c(c1=O)c1nc3ccccc3nc1n2-c1ccc(C)c(C)c1`, 9.11 µM. For the compound `COc1ccc(S(=O)(=O)N/N=C(/C)c2ccncc2)cc1`, the EC50 was > 15 µM (inactive). In the case of `COC(=O)c1sc(N2C(=O)C(O)=C(C(=O)c3ccc(C)o3)C2c2ccc([N+](=O)[O-])cc2)nc1C` (stereo unspecified) it was 4.1 µM; in that of `Cc1cccc(OCCn2c(NC(=O)c3ccco3)nc3ccccc32)c1`, 2.69 µM.

As to `CCCCn1c(=O)c(C(=O)NCc2ccccc2)c(O)c2ccccc21`, the EC50 was 6.85 µM. Next, `Cc1cccc(NC(=O)c2nc[nH]c2C(=O)N[C@@H](Cc2ccccc2)C(=O)OC(C)(C)C)c1`: 1.44 µM; `Cc1nn(CC(=O)NC2C(=O)N3C(C(=O)O)=C(CSc4nnnn4C)CSC23)cc1Br` (stereo unspecified): below 0.06 µM; `COc1ccc(C(=O)NNC(=S)NC(=O)c2ccc(Br)o2)cc1OC`: 0.779 µM. Next, `COc1cccc(C2C3=C(N=c4s/c(=C\c5cccc(O)c5)c(=O)n42)c2ccccc2CC3)c1OC` (stereo unspecified): 5.37 µM; `Cc1cc(C)n(-c2nc(SCC(=O)O)c3c4c(sc3n2)CCCC4)n1`: 5.93 µM; `Cc1cc(Nc2ccccc2)n(-c2nc3ccccc3[nH]2)n1`: 2.1 µM.

As for `COc1cc2c3c(c1)/C(=C1/SC(=S)NC1=O)C(=O)N3C(C)(C)C=C2C`, the EC50 is 1.1 µM. In the case of `Cc1cc(Oc2ccc(Cl)cc2)nc(-c2ccccc2O)n1` it was > 15 µM (inactive); in that of `CC(/C=C/c1ccc(N(C)C)cc1)=N/N=C1/NC(=O)CC(C(=O)Nc2ccc(Cl)cc2)S1` (stereo unspecified), 2.38 µM. Consider `CCOC(=O)C1=C(C)n2c(s/c(=C/c3cccc([N+](=O)[O-])c3)c2=O)=NC1c1ccc(O)c(OC)c1` (stereo unspecified), for which the EC50 is 10.5 µM. Consider `Oc1c(Br)cc(Br)cc1/C=N/Nc1ccc(Cl)nn1`, for which the EC50 was 0.481 µM. For `Cc1nn(-c2ccccc2)c(Cl)c1C1C(C#N)=C(N)OC2=C1C(=O)CC(C)(C)C2` (stereo unspecified), the EC50 was 1.45 µM. With `CCCCc1nc2cc(C(=O)N3CCC(OCCOC)CC3)ccc2o1`, the EC50 was > 15 µM (inactive). In the case of `N#CCSc1nc2ccc(N3CCOCC3)cc2c(=O)n1CCc1ccccc1` it was 3.71 µM; in that of `CC(C)c1c(C(=O)N/N=C/c2cccc(OCc3ccccc3)c2)nnn1-c1nonc1N`, 9.4 µM. Next, `CCOC(=O)Cc1c(C)nc2c(-c3cccc(Br)c3)c[nH]n2c1=O`: 3.53 µM; `O=C(Nc1cccc(-c2csc(Nc3ccc(Cl)cc3)n2)c1)c1ccccc1`: 4.45 µM. In the case of `CCCOc1ccc(/C(O)=C2/C(=O)C(=O)N(c3ccccn3)C2c2ccc(OC)cc2)cc1C` (stereo unspecified) it was 6.28 µM; in that of `Nc1cc(-c2ccc(OC(F)(F)F)cc2)nn1-c1ccc(Cl)c(Cl)c1`, 6.17 µM; in that of `CC(Oc1ccccc1)C(=O)NC1C(=O)N2C1SC(C)(C)C2C(=O)O` (stereo unspecified), 0.114 µM. Take `O=C(Nc1nnc(C2CC2)s1)c1cc(-c2ccccc2)nn1-c1ccccc1`: the EC50 is 6.47 µM. Turning to `CC(C)n1nc(C(=O)Nc2nnc(SCc3c(Cl)cccc3Cl)s2)c2ccccc2c1=O`, the EC50 was 1.68 µM. In the case of `O=C(Nc1nnc(-c2ccc(Cl)cc2)o1)c1nc2ccccc2s1` it was 0.178 µM; in that of `O=C(NNC1=C(C(=O)C(F)(F)F)CCC1)c1ccccc1O`, 0.724 µM. Consider `Fc1ccc(CSc2ncnc3sc4c(c23)CCCC4)cc1`, for which the EC50 is 3.97 µM.

Regarding `COc1ccc(OCCCC(=O)Nc2nc(-c3ccccn3)cs2)cc1`, the EC50 was 0.309 µM. In the case of `CCCOc1ccc(C(=O)NC(=S)N2CCN(c3cc4c(cc3F)c(=O)c(C(=O)O)cn4CC)CC2)cc1` it was 2.34 µM.

Consider `C=CCSc1nsc(NC(=O)Nc2ccc(F)cc2)n1`, for which the EC50 is 3.7 µM.

For `CCCc1nnc(NC(=O)c2c(O)c3cccc4c3n(c2=O)CCC4)s1`, the EC50 was 6.91 µM. In the case of `O=C(NC(=S)Nc1ccccc1N1CCCCC1)c1ccc(F)cc1Cl` it was 3.4 µM; in that of `Cc1ccc2nc(N3C(=O)C(O)=C(C(=O)c4ccco4)C3c3cccs3)sc2c1` (stereo unspecified), 2.1 µM; in that of `COc1cccc(-c2coc3c(C)c4oc(=O)c(CCC(=O)O)c(C)c4cc23)c1`, 3.73 µM.

Take `CCCc1cc(NCc2ccccn2)n2nc(C)c(-c3ccccc3)c2n1`: the EC50 is 6.4 µM. In the case of `Cc1ccc(CNC(=S)Nc2ccc(NS(=O)(=O)c3ccc(C)cc3)cc2)cc1`, the EC50 is 8.28 µM. Next, `CCOC(=O)C1=C(Cc2ccc(C)cc2)C(=O)c2ccccc2C1=O`: 4.64 µM. Take `Cc1cccc2sc(NNC(=O)c3cc(-c4cccs4)nc4ccccc34)nc12`: the EC50 was 1.05 µM. In the case of `O=c1cc(-c2ccccc2Cl)oc2c(NS(=O)(=O)c3cc(Cl)cc(Cl)c3O)ccc(O)c12` it was 0.552 µM; in that of `Cc1nn(C)c(Cl)c1CN1CCCC(C(=O)Nc2ccc(-c3cscn3)cc2)C1` (stereo unspecified), > 15 µM (inactive); in that of `CSc1ccccc1-c1n[nH]c(=S)o1`, > 5 µM (inactive). In the case of `CCOC(=O)c1c(-c2ccc(C)o2)csc1NC(=O)COC(=O)c1ccc(NC(N)=O)cc1` it was 2.53 µM. In the case of `COc1cccc(-c2cc(C(=O)NCC3CCCO3)c3cc(Br)cc(C)c3n2)c1` (stereo unspecified) it was > 15 µM (inactive); in that of `O=C(N/N=C/c1cc(Br)cc([N+](=O)[O-])c1O)c1ccc(NC(=O)c2ccc(F)cc2)cc1`, 4 µM. Consider `CC12CCC(C(=O)NNC(=O)c3ccccc3)(OC1=O)C2(C)C` (stereo unspecified), for which the EC50 was > 15 µM (inactive). As to `CCCCCCCCOC(=O)/C=C/c1c(C)[nH]c(=O)[nH]c1=O`, the EC50 was 0.788 µM.

With `c1ccc(-c2noc(-c3ccccc3-c3ccccc3)n2)cc1`, the EC50 is 3.7 µM. As to `CC/C(=N\NC(=S)Nc1cc(C)ccc1C)c1ccc(OC(F)F)cc1`, the EC50 is 3.13 µM.

Consider `O=C(CNc1ccc(F)cc1)N/N=C/c1c(O)ccc2ccccc12`, for which the EC50 is 1.12 µM.

With `COc1ccc(C(=O)NC(=S)NNC(=O)c2ccc(C)cc2)cc1`, the EC50 is 0.137 µM. In the case of `Cc1ccc(/C=C/C(=O)C2C(=O)c3ccccc3C2=O)cc1` it was 1.62 µM; in that of `CN(C(=O)CSc1nc(-c2ccc(C(C)(C)C)cc2)c(C#N)c(=O)[nH]1)C1CCCCC1`, 1.36 µM.

With `Cn1cccc1CC(=O)NNC(=S)NC(=O)c1ccccc1Br`, the EC50 is 1.64 µM.

On to `C=CCc1cc(/C=C2/NC(=O)N(CC)C2=O)cc(OCC)c1OCc1ccc(C(=O)O)cc1`, for which the EC50 was 11.9 µM. In the case of `Cc1cc(C(C)(C)C)cc(C)c1COC(=O)c1cccnc1` it was 3.25 µM; in that of `Cc1cccc(C)c1OC1(c2ccccc2)OC(=O)c2ccccc21` (stereo unspecified), 2.85 µM; in that of `CC1CCN(c2nc(-c3ccc(F)cc3)cc(C(F)(F)F)n2)CC1`, 1.71 µM.

Consider `Cc1ccc(C)c(NC(=S)N/N=C2/CCCCc3ccccc32)c1`, for which the EC50 is 0.643 µM. In the case of `O=C(CN(c1cccc(Br)c1)S(=O)(=O)c1ccccc1)N/N=C/c1cc([N+](=O)[O-])ccc1O` it was 0.441 µM; in that of `Cc1cc(C)c2nc(SCCc3ccccc3)nc(C)c2c1`, 5.85 µM. Regarding `CCCOc1cccc(-c2cc(C(=O)N/N=C/c3ccccn3)c3ccccc3n2)c1`, the EC50 is 1.87 µM.

As for `COc1ccc(NC(=O)CN(C)C(=O)/C=C/c2cn(-c3ccccc3)nc2-c2ccc(C)cc2)cc1`, the EC50 is 8.68 µM. For `CN(Cc1ccc(OC(F)F)cc1)Cc1nc2c(Br)cc(Br)cc2c(=O)[nH]1`, the EC50 was 2.98 µM.

On to `c1ccc(-c2nc(C3CCCCC3)c3sccc3n2)cc1`, for which the EC50 is 3.31 µM.

On to `CC1CN(Cc2nc3c(c(=O)[nH]c(=O)n3C)n2CCCc2ccccc2)CC(C)O1` (stereo unspecified), for which the EC50 was > 15 µM (inactive). In the case of `COc1ccc(Cn2c(SCc3cc(C)ccc3C)nc3cc(OC)c(OC)cc3c2=N)cc1` it was 2.73 µM; in that of `O=c1c([N+](=O)[O-])cccn1Cc1ccc(F)cc1Cl`, 3.38 µM. Next, `FC(F)(F)c1cccc(NC(=S)Nc2ccc(Cl)c(Cl)c2)c1`: 2.45 µM; `CC1CCN(c2ccccc2NC(=O)c2cc3ccccc3o2)CC1`: 11.7 µM. In the case of `Cc1nn(-c2nc3ccccc3[nH]2)c(N)c1-c1ccc(Cl)cc1` it was 1.53 µM; in that of `O=S(=O)(Nc1ccc(N=Nc2ccc(O)c3ccccc23)cc1)c1ccccc1`, 7.08 µM. As for `CCOc1ccc(/C=N/NC(=S)NC2CC3CC2C2C=CCC32)cc1` (stereo unspecified), the 50% effective concentration (EC50) was 5.48 µM. In the case of `COC(=O)c1ccc(Oc2nc3ccccc3n3c(C)nnc23)cc1` it was 6.1 µM. With `O=C(/C=C/c1ccco1)Nc1nc(-c2ccccn2)cs1`, the EC50 is 0.362 µM.

Turning to `O=C(CSc1nc2nc(-c3cccs3)cc(C(F)(F)F)c2c(=O)[nH]1)Nc1ccc(F)c(F)c1`, the EC50 is 1.16 µM. For the compound `Cc1ccc(Cn2ccc(=O)c(OCc3c(Cl)cccc3Cl)c2C)cc1`, the EC50 was 5.94 µM.

These data come from PubChem BioAssay AID1902 (Broad Institute, 2009).
